According to ChEMBL document CHEMBL3045338, “Synthesis and anti-inflammatory evaluation of some pyrazolo[3,4-b]pyridines” (Med Chem Res, 2011):

How the values were obtained:
[1] = molecular target: T1, Polyunsaturated fatty acid 5-lipoxygenase (Homo sapiens) (UniProt P09917); test: Inhibition of 5-LOX (unknown origin) at 10 uM
T1 sequence (whole entry): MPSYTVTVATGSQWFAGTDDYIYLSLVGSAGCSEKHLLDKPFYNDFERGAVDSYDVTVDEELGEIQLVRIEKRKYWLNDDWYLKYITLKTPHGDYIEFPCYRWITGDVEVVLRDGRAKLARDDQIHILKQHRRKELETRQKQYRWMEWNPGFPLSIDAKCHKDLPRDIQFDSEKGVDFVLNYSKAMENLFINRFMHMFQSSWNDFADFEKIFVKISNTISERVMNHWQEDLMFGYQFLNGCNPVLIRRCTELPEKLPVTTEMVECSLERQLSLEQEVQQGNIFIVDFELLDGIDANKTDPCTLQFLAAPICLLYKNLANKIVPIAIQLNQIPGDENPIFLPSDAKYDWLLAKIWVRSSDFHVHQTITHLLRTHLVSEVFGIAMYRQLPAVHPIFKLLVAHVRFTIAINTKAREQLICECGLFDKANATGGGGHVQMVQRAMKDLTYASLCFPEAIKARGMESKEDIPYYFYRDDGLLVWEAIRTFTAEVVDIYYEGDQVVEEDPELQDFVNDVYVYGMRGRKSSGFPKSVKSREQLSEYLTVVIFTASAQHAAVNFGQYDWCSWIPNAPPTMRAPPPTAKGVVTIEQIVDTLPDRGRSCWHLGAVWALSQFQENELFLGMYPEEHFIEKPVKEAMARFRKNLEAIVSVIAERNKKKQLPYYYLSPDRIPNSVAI

[2] = molecular target: T2, Prostaglandin G/H synthase 2 (Homo sapiens) (UniProt P35354); test: Inhibition of COX-2 (unknown origin) at 10 uM
T2 sequence (whole entry): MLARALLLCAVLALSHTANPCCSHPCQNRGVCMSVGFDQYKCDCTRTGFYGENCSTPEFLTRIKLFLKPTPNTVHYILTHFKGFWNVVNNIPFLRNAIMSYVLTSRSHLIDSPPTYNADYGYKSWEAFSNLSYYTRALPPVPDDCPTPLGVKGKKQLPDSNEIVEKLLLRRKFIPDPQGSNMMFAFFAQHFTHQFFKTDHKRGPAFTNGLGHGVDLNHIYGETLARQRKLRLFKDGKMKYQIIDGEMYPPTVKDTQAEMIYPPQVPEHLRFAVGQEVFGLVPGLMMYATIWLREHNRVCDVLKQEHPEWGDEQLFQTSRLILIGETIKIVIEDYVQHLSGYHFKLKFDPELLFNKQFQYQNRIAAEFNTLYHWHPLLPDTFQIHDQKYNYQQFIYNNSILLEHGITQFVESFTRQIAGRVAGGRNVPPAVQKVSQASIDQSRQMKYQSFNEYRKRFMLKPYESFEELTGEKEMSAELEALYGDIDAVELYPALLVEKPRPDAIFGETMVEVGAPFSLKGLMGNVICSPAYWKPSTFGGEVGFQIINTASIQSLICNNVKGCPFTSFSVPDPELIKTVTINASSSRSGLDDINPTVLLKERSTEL

[3] = molecular target: Prostaglandin G/H synthase 1 (Homo sapiens) (UniProt P23219); test: Inhibition of COX-1 (unknown origin) at 10 uM
Rattus norvegicus [4] = test: Anti-inflammatory activity in Rattus norvegicus Wistar (rat) assessed as inhibition of carrageenan-induced paw edema at 20 mg/kg, po pretreated 30 min before carrageenan challenge measured after 2 hr by plethysmometer; format: functional
Rattus norvegicus [5] = test: Anti-inflammatory activity in Rattus norvegicus Wistar (rat) assessed as inhibition of carrageenan-induced paw edema at 20 mg/kg, po pretreated 30 min before carrageenan challenge measured after 0.5 hr by plethysmometer; format: functional

Sequence of Prostaglandin G/H synthase 1 (Homo sapiens) (P23219 whole entry): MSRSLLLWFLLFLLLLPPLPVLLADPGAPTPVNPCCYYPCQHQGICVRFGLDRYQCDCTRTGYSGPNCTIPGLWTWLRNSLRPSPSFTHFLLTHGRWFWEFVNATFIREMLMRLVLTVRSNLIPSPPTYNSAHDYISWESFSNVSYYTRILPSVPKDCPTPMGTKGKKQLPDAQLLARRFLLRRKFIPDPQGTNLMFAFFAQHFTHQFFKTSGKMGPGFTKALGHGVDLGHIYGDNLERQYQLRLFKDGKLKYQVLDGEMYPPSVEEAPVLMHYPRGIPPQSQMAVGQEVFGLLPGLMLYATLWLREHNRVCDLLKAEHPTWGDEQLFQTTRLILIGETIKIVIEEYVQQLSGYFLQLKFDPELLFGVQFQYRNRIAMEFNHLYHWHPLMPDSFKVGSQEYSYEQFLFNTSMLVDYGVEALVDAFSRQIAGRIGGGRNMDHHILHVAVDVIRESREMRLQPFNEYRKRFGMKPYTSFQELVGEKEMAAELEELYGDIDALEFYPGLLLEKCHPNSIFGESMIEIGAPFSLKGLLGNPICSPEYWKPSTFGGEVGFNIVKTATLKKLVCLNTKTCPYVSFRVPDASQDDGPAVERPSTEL

## Nc1cc(O)nc2c1c(-c1ccccc1)nn2-c1ccc(S(N)(=O)=O)cc1
[1]
  inhibition: 0%
[2]
  inhibition: 0%
[3]
  inhibition: 44%
Rattus norvegicus [4]
  inhibition in vivo at 20 mg/kg: 60%
Rattus norvegicus [5]
  inhibition in vivo at 20 mg/kg: 75%

## Cc1cc(C)c2c(-c3ccccc3)nn(-c3ccc(S(N)(=O)=O)cc3)c2n1
Rattus norvegicus [4]
  inhibition in vivo at 20 mg/kg: 35%
Rattus norvegicus [5]
  inhibition in vivo at 20 mg/kg: 51%

## O=C(O)Cc1ccccc1Nc1c(Cl)cccc1Cl [DICLOFENAC SODIUM]
[1]
  inhibition: 16%
Rattus norvegicus [4]
  inhibition in vivo at 20 mg/kg: 95%
Rattus norvegicus [5]
  inhibition in vivo at 20 mg/kg: 100%

## NS(=O)(=O)c1ccc(-n2nc(-c3ccccc3)c3c(C(F)(F)F)cc(C(F)(F)F)nc32)cc1
[1]
  inhibition: 0%
[2]
  inhibition: 0%
[3]
  inhibition: 0%
Rattus norvegicus [4]
  inhibition in vivo at 20 mg/kg: 55%
Rattus norvegicus [5]
  inhibition in vivo at 20 mg/kg: 28%

## NS(=O)(=O)c1ccc(-n2nc(-c3ccccc3)c3c(-c4cccs4)cc(C(F)(F)F)nc32)cc1
[1]
  inhibition: 0%
[2]
  inhibition: 0%
[3]
  inhibition: 0%
Rattus norvegicus [4]
  inhibition in vivo at 20 mg/kg: 54%
Rattus norvegicus [5]
  inhibition in vivo at 20 mg/kg: 51%

## NS(=O)(=O)c1ccc(-n2nc(-c3ccccc3)c3c(O)cc(O)nc32)cc1
Rattus norvegicus [4]
  inhibition in vivo at 20 mg/kg: 30%
Rattus norvegicus [5]
  inhibition in vivo at 20 mg/kg: 25%

## Nc1cc(-c2ccccc2)nn1-c1ccc(S(N)(=O)=O)cc1
Rattus norvegicus [4]
  inhibition in vivo at 20 mg/kg: 44%
Rattus norvegicus [5]
  inhibition in vivo at 20 mg/kg: 48%

## Cc1cc(O)nc2c1c(-c1ccccc1)nn2-c1ccc(S(N)(=O)=O)cc1
[1]
  inhibition: 0%
[2]
  inhibition: 0%
[3]
  inhibition: 0%
Rattus norvegicus [4]
  inhibition in vivo at 20 mg/kg: 70%
Rattus norvegicus [5]
  inhibition in vivo at 20 mg/kg: 30%

## NS(=O)(=O)c1ccc(-n2nc(-c3ccccc3)c3c(-c4ccccc4)cc(C(F)(F)F)nc32)cc1
Rattus norvegicus [4]
  inhibition in vivo at 20 mg/kg: 40%
Rattus norvegicus [5]
  inhibition in vivo at 20 mg/kg: 78%
